These results are taken from publication PMC3566758 (Beilstein Journal of Organic Chemistry, 2013).

The EC50 is the midpoint of the concentration-response curve. The solubility is how much of the substance goes into solution per volume.

For series [1], the system named is measles virus (MeV) recombinant. Nature of the series: microbe, parasite or virus in culture. It counts as cell-based. To be noted: for EC50: Measles morbillivirus.
The nature of series [2]: microbe, parasite or virus in culture. It counts as cell-based. To be noted: Influenza A virus, WSN, read-out: EC50 WSN.
The subject of a further series is measles virus (MeV). Briefly: measles virus cytopathic effect (CPE) reduction assay. To be noted: Measles morbillivirus, read-out: MeV (CPE) 50% inhibitory concentration. Format: cell-based. The procedure:
A small set of compounds was synthesized based on variations of 1 by replacing the p-methoxyphenyl group with other substituted phenyl rings or heterocyclic rings. The compounds were initially assayed in two screening assays: (1) a measles virus cytopathic effect (CPE) reduction assay and (2) a solubility assay based on laser nephelometry. Unfortunately, compounds with the highest aqueous solubilities (>100 µg/mL) had the poorest antiviral activity (i.e., 18a and 18e, Table 1).
(Cytopathic effects are the visible damage that an infection or toxin causes in cultured cells.)

Details of series [3]: method as in earlier work. To be noted: ref 15 (Pharmacokinetics Study of JMN3-003. Unpublished results); cited from earlier work.
In a further series the test system is MeV. Nature of the series: virus yield reduction assay. It counts as cell-based. To be noted: Measles morbillivirus, read-out: MeV 50% inhibitory concentration, virus yield reduction assay.
The mark [4] stands for this setting: pH 3, aqueous buffer, kinetic from dmso stock.
The mark [5] stands for this setting: pH 5, aqueous buffer, kinetic from dmso stock.
Where [6] appears, read: pH 7.4, aqueous buffer, kinetic from dmso stock.
Setting [7] is: averages of four experiments, highest concentration assessed 75 μM.

Values after ≈ are worked out from the molar mass of the structure shown. Read-outs that look alike come from different tables or passages of the source.

On to `COc1ccc(-n2c(S[C@H](C)C(=O)Nc3ccc(C)cc3Cl)nc3ccccc32)cc1` [(R)-1], for which the figures for the EC50 in series [1] (read-out: EC50 MeV) and in series [2] were 880 nM and 160 nM, respectively. Besides, the CC50 in the series “in vitro” is > 50000 nM.
Turning to `Cc1ccc(NC(=O)[C@@H](C)Sc2nc3ccccc3n2-c2ccccc2CN2CCN(C)CC2)c(Cl)c1` [(R)-14a], the EC50 was 470 nM in series [1] (read-out: EC50 MeV) and 120 nM in series [2].
As to `Cc1ccc(NC(=O)[C@@H](C)Sc2nc3ccccc3n2-c2cccc(CCN3CCOCC3)c2)c(Cl)c1` [(R)-14b], the results for the EC50 in series [1] (read-out: EC50 MeV) and in series [2] were 210 nM and 110 nM, respectively. The CC50 in “in vitro” was > 50000 nM.
`Cc1ccc(NC(=O)[C@@H](C)Sc2nc3ccccc3n2-c2ccc(CCN3CCOCC3)cc2)c(Cl)c1` [(R)-14c]: the EC50 in series [1] (read-out: EC50 MeV) amounted to 530 nM; in series [2], 120 nM.
With `COc1ccc(-n2c(S[C@@H](C)C(=O)Nc3ccc(C)cc3Cl)nc3ccccc32)cc1` [(S)-1], the EC50 stood at 37 nM in series [1] (read-out: EC50 MeV) and 5 nM in series [2]. Further, in “in vitro”, the CC50 was > 50000 nM.
In the same order, the values of `Cc1ccc(NC(=O)[C@H](C)Sc2nc3ccccc3n2-c2ccccc2CN2CCN(C)CC2)c(Cl)c1` [(S)-14a] are 68 nM, 4 nM and 25000 nM.
Consider `Cc1ccc(NC(=O)[C@H](C)Sc2nc3ccccc3n2-c2cccc(CCN3CCOCC3)c2)c(Cl)c1` [(S)-14b], for which the EC50 in series [1] (WSN, read-out: EC50 values against the two viruses) is 1 to 11 nM; in series [1] (read-out: EC50 MeV), 11 nM; in series [2], 1 nM. The CC50 in the series “in vitro” is > 50000 nM.
On to `Cc1ccc(NC(=O)[C@H](C)Sc2nc3ccccc3n2-c2ccc(CCN3CCOCC3)cc2)c(Cl)c1` [(S)-14c], for which the half-maximal effective concentration (EC50) came to 180 nM in series [1] (read-out: EC50 MeV) and 36 nM in series [2].
`COc1ccc(-n2c(SC(C)C(=O)Nc3ccc(C)cc3Cl)nc3ccccc32)cc1` (stereo not shown) [Compound 1]: the concentration for a half-maximal effect (EC50) in series [1] (read-out: EC50 MeV) was determined as 31 nM; in series [2], 13 nM. Besides, the solubility in “physchem”, in “physchem” (setting [4]), in the series “physchem” (setting [5]) and in “physchem” (setting [6]) was < 15 µg/mL each time. Besides, in the series on measles virus (MeV) (setting [7]), the IC50 was 3100 nM. In addition, the oral bioavailability result in series [3] is “low”. The CC50 in the series “in vitro” is > 50000 nM.
In the case of `Cc1ccc(NC(=O)C(C)Sc2nc3ccccc3n2-c2ccccc2CN2CCN(C)CC2)c(Cl)c1` (stereo not shown) [Compound 14a], the EC50 turned out to be 41 nM in series [1] (read-out: EC50 MeV) and 8 nM in series [2]. Moreover, the solubility is > 300 µg/mL in “physchem” (setting [4]), 92 µg/mL (≈ 172 µM) in the series “physchem” (setting [5]) and 20 µg/mL (≈ 37.4 µM) in the series “physchem” (setting [6]). The IC50 in the series on measles virus (MeV) (setting [7]) turned out to be 179 nM.
Regarding `Cc1ccc(NC(=O)C(C)Sc2nc3ccccc3n2-c2cccc(CCN3CCOCC3)c2)c(Cl)c1` (stereo not shown) [Compound 14b], the EC50 in series [1] (read-out: EC50 MeV) was 13 nM; in series [2] it was 0.3 nM. Further, the solubility in the series “physchem” (setting [4]) was found to be 158 µg/mL (≈ 295 µM); in “physchem” (setting [5]), 33 µg/mL (≈ 61.7 µM); in the series “physchem” (setting [6]), 15 µg/mL (≈ 28 µM). In the series on measles virus (MeV) (setting [7]), the IC50 is 200 nM. For the same molecule, the CC50 in the series “in vitro” was > 50000 nM.
`Cc1ccc(NC(=O)C(C)Sc2nc3ccccc3n2-c2ccc(CCN3CCOCC3)cc2)c(Cl)c1` (stereo not shown) [Compound 14c]: in series [1] (MeV and WSN EC50 comparisons), the “ΔEC50, (S)-enantiomer versus (R)-enantiomer” value was < 3 fold. The EC50 came out at 110 nM in series [1] (read-out: EC50 MeV) and 43 nM in series [2]. The results for the solubility in the series “physchem” (setting [4]), in the series “physchem” (setting [5]) and in “physchem” (setting [6]) were 212 µg/mL (≈ 396 µM), 51 µg/mL (≈ 95.3 µM) and 25 µg/mL (≈ 46.7 µM), respectively. Moreover, the IC50 with measles virus (MeV) (setting [7]) is 600 nM.
In the series “physchem” (setting [6]), `Cc1ccc(NC(=O)C(C)Sc2nc3ccccc3n2C2CCCN(C)C2)c(Cl)c1` (stereo not shown) [Compound 18b] registered a solubility of 19 µg/mL (≈ 42.9 µM). Also, the IC50 in the series with measles virus (MeV) is > 290 nM.
As to `Cc1ccc(NC(=O)C(C)Sc2nc3ccccc3n2N2CCN(C)CC2)c(Cl)c1` (stereo not shown) [Compound 18c], the solubility in the series “physchem” (setting [6]) is < 15 µg/mL. Further, the IC50 with measles virus (MeV) (setting [7]) was > 75000 nM.
In the same order, the values of `Cc1ccc(NC(=O)C(C)Sc2nc3ccccc3n2CCN2CCOCC2)c(Cl)c1` (stereo not shown) [Compound 18d] are 22 µg/mL (≈ 47.9 µM) and 4900 nM.
Consider `Cc1ccc(NC(=O)C(C)Sc2nc3ccccc3n2CCN2CCNCC2)c(Cl)c1` (stereo not shown) [Compound 18e], for which the solubility was > 100 µg/mL in the series “physchem” (pH 7.4) and 120 µg/mL (≈ 262 µM) in the series “physchem” (setting [6]). The IC50 with measles virus (MeV) (setting [7]) is > 75000 nM.
As for `Cc1ccc(NC(=O)C(C)Sc2nc3ccccc3n2-c2cccc(CN3CCOCC3)c2)c(Cl)c1` (stereo not shown) [Compound 18f], in the series “physchem” (setting [6]), the solubility was < 15 µg/mL. For the same molecule, the IC50 in the series on measles virus (MeV) (setting [7]) worked out at 270 nM.
For `Cc1ccc(NC(=O)C(C)Sc2nc3ccccc3n2-c2cccc(CCn3ncnn3)c2)c(Cl)c1` (stereo not shown) [Compound 18g], in “physchem” (setting [6]), the solubility is < 15 µg/mL. Besides, in the series with MeV, the IC50 amounted to 50 nM.
